In one experiment the test system is pERK, HCT116 cells. Briefly: Phospho-ERK inhibition, AlphaLISA p-ERK 1/2, HCT-116. In kind it is cell-based, human. The note with it: Table 3; for IC50: HCT116 cells (KRAS G13D), 1 h treatment; for HCT116 pERK (Ymin %): lowest % inhibition value of the pERK IC50 curve, above −20% = no paradoxical induction. In a few lines: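 Cells in RPMI-1640 with 5% FBS plated overnight, then treated 1 h with ten-point dilutions (10 μM to 0.33 nM, 0.5% DMSO). Lysate p-ERK1/2 (Thr202/Tyr204) read by AlphaLISA SureFire Ultra; % inhibition normalised to DMSO and 1 μM trametinib background, IC50 by four-parameter fit.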
A general note: Alpha assays give light when donor and acceptor beads are brought close together.

The subject of the next experiment is A2058 cells. Briefly: Proliferation inhibition, CellTiter-Glo, A2058. The class given is cell-based, human. The note with it: Table D-1; A2058 (BRAF V600E), 3 days; read-out: Prolif. (proliferation EC50). How it is done: All cancer cell lines (A375, A101D, A2058, RKO, HT29 SK-MEL 30, IPC298, HepG2, HCT-116, Lovo, SW620, SW480, NCI-H358, NCI-H2122, Calu-6, NCIH2087, NCIH1755, NCIH1666 and Mewo) were obtained from ATCC and cultured in RPM1-1640 medium (Gibco) supplemented with 5% heat inactivated fetal bovine serum (FBS, Wisent) at 37° C. under 5% CO2. Cells were maintained in T175 flasks (Greiner). They were passaged by removing the culture medium, washing once in 10 mL of room temperature Phosphate Buffered Saline (PBS; Wisent) and incubating at 37° C. with 2 mL of 0.05% Trypsin (Thermo-Fisher). […]
After 3 days of incubation, the growth media were removed by aspiration and 60 μL of diluted CellTiter-Glo® reagent (10 μL CellTiter-Glo® reagent+50 μL of PBS) was added to each well. […] Luminescence signals were then acquired on a Synergy Neo2 plate reader (Biotek).
The effect of each compound dilution on the proliferation of cancer cell lines was expressed in % inhibition and calculated as follows. […]
The ability of each compound to inhibit proliferation was expressed as a EC50 value obtained by plotting the effect values for each data point of a dilution series and fitting the obtained curves using a log(agonist) versus response—variable slope (four parameters) function using GraphPadPrism (V7.0) or Dotmatics Screening Ultra platform.

The structures appear in SMILES notation.

The IC50 is the concentration that gives 50% inhibition. Low values mean inhibition by little substance, high ones a need for much substance. Consider `Cc1c(F)cccc1S(=O)(=O)Nc1ccc(F)c(Nc2ncnc3sc(-n4cc(C(=O)N5C6CCC5CN(C)C6)c5ccccc54)nc23)c1F` [Example 44], for which, in the experiment with pERK, HCT116 cells, the IC50 was less than 500 nM and the “HCT116 pERK (Ymin %)” value was 3%. In addition, the EC50 in the experiment on A2058 cells was less than 300 nM.
Consider `N#CC1(c2cccc3c2ncn3-c2nc3c(Nc4c(F)ccc(NS(=O)(=O)c5cccc(Cl)c5Cl)c4F)ncnc3s2)CC1` [Example 122], for which, in the experiment with pERK, HCT116 cells, the half-maximal inhibitory concentration (IC50) was less than 500 nM and the “HCT116 pERK (Ymin %)” value turned out to be 2%. In addition, the EC50 with A2058 cells was less than 300 nM.

The values above are taken from patent US20260137697A1, “THIAZOLO[5,4-D]PYRIMIDINE COMPOUNDS, COMPOSITIONS COMPRISING THEM AND USES THEREOF” (University de Montreal, priority 2022, published 2026).
